Measured values from article PMC11951252 (RSC Advances, 2025).

Legend:
[1] = system: MCF-7; assay: Antiproliferative MTT assay, MCF-7; assay type: cell-based, human; settings: for IC50: Homo sapiens, MCF7, read-out: Antiproliferative activity IC50 ± SEM, MCF-7
[2] = system: HCT-116; assay: Antiproliferative MTT assay, HCT-116; assay type: cell-based; settings: Homo sapiens, HCT-116, read-out: Antiproliferative activity IC50 ± SEM, HCT-116
[3] = system: PC-3; assay: Antiproliferative MTT assay, PC-3; assay type: cell-based; settings: Homo sapiens, PC-3, read-out: Antiproliferative activity IC50 ± SEM, PC-3
[4] = system: MDAMB-231; assay: Antiproliferative MTT assay, MDAMB-231; assay type: cell-based, human
[5] = system: four human cancer cell lines (HCT-116, PC-3, MCF-7, MDAMB-231); assay: Antiproliferative MTT assay, average over four cancer cell lines; assay type: cell-based; settings: for GI50: average IC50 of the four cancer cell lines; for fold less potent than compound 4n (GI50): ratio of GI50 values
[6] = target: HER2-TK (Homo sapiens, UniProt P04626); assay: HER2 inhibitory assay; assay type: biochemical; settings: HER2 IC50 ± SEM, Table 3
[7] = target: EGFR-TK (Homo sapiens, UniProt P00533); assay: EGFR inhibitory assay; assay type: biochemical
EGFR-TK, sequence (P00533 669-1210): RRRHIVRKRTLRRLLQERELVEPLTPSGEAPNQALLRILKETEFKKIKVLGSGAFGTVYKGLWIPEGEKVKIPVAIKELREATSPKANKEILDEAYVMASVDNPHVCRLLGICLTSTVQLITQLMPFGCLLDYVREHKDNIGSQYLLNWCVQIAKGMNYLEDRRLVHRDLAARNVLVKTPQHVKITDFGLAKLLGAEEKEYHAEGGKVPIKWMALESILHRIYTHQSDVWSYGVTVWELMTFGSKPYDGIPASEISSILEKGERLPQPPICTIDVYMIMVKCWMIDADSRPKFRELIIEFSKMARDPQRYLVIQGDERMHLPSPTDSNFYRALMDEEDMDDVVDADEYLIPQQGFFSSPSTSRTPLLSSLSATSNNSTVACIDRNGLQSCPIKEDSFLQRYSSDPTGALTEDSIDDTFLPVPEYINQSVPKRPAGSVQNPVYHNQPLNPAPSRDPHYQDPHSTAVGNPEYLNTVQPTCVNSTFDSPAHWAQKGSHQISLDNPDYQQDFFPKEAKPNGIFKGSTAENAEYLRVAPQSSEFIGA

HER2-TK, sequence (P04626 676-1255 limits assumed): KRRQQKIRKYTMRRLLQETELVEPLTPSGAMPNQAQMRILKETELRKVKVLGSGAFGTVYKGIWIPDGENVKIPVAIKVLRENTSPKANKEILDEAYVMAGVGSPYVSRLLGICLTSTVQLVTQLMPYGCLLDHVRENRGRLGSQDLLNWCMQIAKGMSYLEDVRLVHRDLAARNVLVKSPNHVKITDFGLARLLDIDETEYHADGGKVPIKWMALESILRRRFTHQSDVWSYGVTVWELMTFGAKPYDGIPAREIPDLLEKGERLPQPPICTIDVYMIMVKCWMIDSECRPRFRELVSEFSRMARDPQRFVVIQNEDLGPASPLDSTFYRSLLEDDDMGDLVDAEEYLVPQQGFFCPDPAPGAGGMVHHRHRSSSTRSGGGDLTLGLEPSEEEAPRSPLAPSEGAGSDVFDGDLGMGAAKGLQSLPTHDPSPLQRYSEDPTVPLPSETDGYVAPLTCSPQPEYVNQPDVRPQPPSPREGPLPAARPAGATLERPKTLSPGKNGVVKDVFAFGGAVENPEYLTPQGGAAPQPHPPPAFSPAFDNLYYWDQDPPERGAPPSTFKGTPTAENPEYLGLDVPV

| Compound | IC50 [1] | IC50 [2] | IC50 [3] | GI50 ([5]; Homo sapiens) | also measured |
| --- | --- | --- | --- | --- | --- |
| COc1ccc(N2CCN(CC(=O)Nc3ccc(C(=O)C=Cc4ccccc4)cc3)CC2)cc1 [4a, N-(4-Cinnamoylphenyl)-2-(4-(4-methoxyphenyl)piperazin-1-yl)acetamide] | 72.4 ± 3.7 µM | 68.6 ± 3.7 µM | 78.2 ± 4 µM |  |  |
| COc1ccc(N2CCN(CC(=O)Nc3ccc(C(=O)C=Cc4ccc(C)cc4)cc3)CC2)cc1 [4b, 2-(4-(4-Methoxyphenyl)piperazin-1-yl)-N-(4-(3-(p-tolyl)acryloyl)phenyl)acetamide] | 65.5 ± 3.5 µM | 79.6 ± 3.8 µM | 32 ± 2.1 µM |  |  |
| COc1ccc(C=CC(=O)c2ccc(NC(=O)CN3CCN(c4ccc(OC)cc4)CC3)cc2)cc1 [4c, N-(4-(3-(4-Methoxyphenyl)acryloyl)phenyl)-2-(4-(4-methoxyphenyl)piperazin-1-yl)acetamide] | 28.3 ± 1.8 µM | 18.1 ± 1.4 µM | 34.5 ± 2.1 µM |  |  |
| COc1ccc(N2CCN(CC(=O)Nc3ccc(C(=O)C=Cc4cc(OC)c(OC)c(OC)c4)cc3)CC2)cc1 [4d, 2-(4-(4-Methoxyphenyl)piperazin-1-yl)-N-(4-(3-(3,4,5-trimethoxyphenyl)acryloyl)phenyl)acetamide] | 24.2 ± 1.7 µM | 29.1 ± 1.9 µM | 61.4 ± 3.5 µM |  |  |
| COc1ccc(N2CCN(CC(=O)Nc3ccc(C(=O)C=Cc4ccc(Br)cc4)cc3)CC2)cc1 [4e, N-(4-(3-(4-Bromophenyl)acryloyl)phenyl)-2-(4-(4-methoxyphenyl)piperazin-1-yl)acetamide] | 52.5 ± 2.9 µM | 64.8 ± 3.5 µM | 73.9 ± 3.8 µM |  |  |
| COc1ccc(N2CCN(CC(=O)Nc3ccc(C(=O)C=Cc4ccc(Cl)cc4Cl)cc3)CC2)cc1 [4f, N-(4-(3-(2,4-Dichlorophenyl)acryloyl)phenyl)-2-(4-(4-methoxyphenyl)piperazin-1-yl)acetamide] | > 100 µM | > 100 µM | > 100 µM |  |  |
| COc1ccc(N2CCN(CC(=O)Nc3ccc(C(=O)C=Cc4ccco4)cc3)CC2)cc1 [4g, N-(4-(3-(Furan-2-yl)acryloyl)phenyl)-2-(4-(4-methoxyphenyl)piperazin-1-yl)acetamide] | 9.37 ± 0.7 µM | 17.3 ± 1.4 µM | 14.2 ± 1.2 µM | 12 µM | fold less potent than 4n, MCF-7 [1]: 2 fold; fold less potent than 4n, MDAMB-231 [4]: 2 fold; fold less potent than compound 4n (GI50) [5]: 1.7 |
| O=C(CN1CCN(c2ccc(Cl)cc2)CC1)Nc1ccc(C(=O)C=Cc2ccccc2)cc1 [4h, 2-(4-(4-Chlorophenyl)piperazin-1-yl)-N-(4-cinnamoylphenyl)acetamide] | 41.3 ± 2.4 µM | 49.6 ± 2.8 µM | 20.4 ± 1.5 µM |  |  |
| Cc1ccc(C=CC(=O)c2ccc(NC(=O)CN3CCN(c4ccc(Cl)cc4)CC3)cc2)cc1 [4i, 2-(4-(4-Chlorophenyl)piperazin-1-yl)-N-(4-(3-(p-tolyl)acryloyl)phenyl)acetamide] | 91.6 ± 4.6 µM | 86.1 ± 4.3 µM | > 100 µM | 90 µM | fold less potent than compound 4n (GI50) [5]: 13 |
| COc1ccc(C=CC(=O)c2ccc(NC(=O)CN3CCN(c4ccc(Cl)cc4)CC3)cc2)cc1 [4j, 2-(4-(4-Chlorophenyl)piperazin-1-yl)-N-(4-(3-(4-methoxyphenyl)acryloyl)phenyl)acetamide] | 42.9 ± 2.5 µM | 27.4 ± 1.9 µM | 66.8 ± 3.5 µM |  |  |
| COc1cc(C=CC(=O)c2ccc(NC(=O)CN3CCN(c4ccc(Cl)cc4)CC3)cc2)cc(OC)c1OC [4k, 2-(4-(4-Chlorophenyl)piperazin-1-yl)-N-(4-(3-(3,4,5-trimethoxyphenyl)acryloyl)phenyl)acetamide] | 17.9 ± 1.4 µM | 34.8 ± 2.2 µM | 42.9 ± 2.5 µM |  |  |
| O=C(CN1CCN(c2ccc(Cl)cc2)CC1)Nc1ccc(C(=O)C=Cc2ccc(Br)cc2)cc1 [4l, N-(4-(3-(4-Bromophenyl)acryloyl)phenyl)-2-(4-(4-chlorophenyl)piperazin-1-yl)acetamide] | 80.8 ± 3.9 µM | 75.4 ± 4.1 µM | 86.4 ± 4.3 µM | 76 µM | fold less potent than compound 4n (GI50) [5]: 11 |
| O=C(CN1CCN(c2ccc(Cl)cc2)CC1)Nc1ccc(C(=O)C=Cc2ccc(Cl)cc2Cl)cc1 [4m, 2-(4-(4-Chlorophenyl)piperazin-1-yl)-N-(4-(3-(2,4dichlorophenyl)acryloyl)phenyl)acetamide] | 35.8 ± 2.2 µM | 44.8 ± 2.6 µM | 55.2 ± 3.2 µM |  |  |
| COc1ccc(N2CCN(CC(=O)Nc3ccc(C4=NN(C(C)=O)C(c5ccccc5)C4)cc3)CC2)cc1 (stereo not shown) [5a, N-(4-(1-Acetyl-5-phenyl-4,5-dihydro-1H-pyrazol-3-yl)phenyl)-2-(4-(4-methoxyphenyl)piperazin-1-yl)acetamide] | 19.6 ± 1.4 µM | 32.1 ± 2.1 µM | 46.3 ± 2.5 µM |  |  |
| COc1ccc(N2CCN(CC(=O)Nc3ccc(C4=NN(C(C)=O)C(c5ccc(C)cc5)C4)cc3)CC2)cc1 (stereo not shown) [5b, N-(4-(1-Acetyl-5-(p-tolyl)-4,5-dihydro-1H-pyrazol-3-yl)phenyl)-2-(4-(4-methoxy-phenyl)piperazin-1-yl)acetamide] | 13.8 ± 1.1 µM | 24.9 ± 1.8 µM | 21.9 ± 1.6 µM | 18 µM |  |
| COc1ccc(C2CC(c3ccc(NC(=O)CN4CCN(c5ccc(OC)cc5)CC4)cc3)=NN2C(C)=O)cc1 (stereo not shown) [5c, N-(4-(1-Acetyl-5-(4-methoxyphenyl)-4,5-dihydro-1H-pyrazol-3-yl)phenyl)-2-(4-(4-methoxyphenyl)piperazin-1-yl)acetamide] | 9.68 ± 0.8 µM | 18.6 ± 1.5 µM | 16.2 ± 1.3 µM | 13 µM |  |
| COc1ccc(N2CCN(CC(=O)Nc3ccc(C4=NN(C(C)=O)C(c5ccc(Br)cc5)C4)cc3)CC2)cc1 (stereo not shown) [5e, N-(4-(1-Acetyl-5-(4-bromophenyl)-4,5-dihydro-1H-pyrazol-3-yl)phenyl)-2-(4-(4-methoxyphenyl)piperazin-1-yl)acetamide] | 15.2 ± 1.3 µM | 26.8 ± 2 µM | 29.6 ± 1.9 µM |  |  |
| COc1ccc(N2CCN(CC(=O)Nc3ccc(C4=NN(C(C)=O)C(c5ccc(Cl)cc5Cl)C4)cc3)CC2)cc1 (stereo not shown) [5f, N-(4-(1-Acetyl-5-(2,4-dichlorophenyl)-4,5-dihydro-1H-pyrazol-3-yl)phenyl)-2-(4-(4-methoxyphenyl)piperazin-1-yl)acetamide] | 47.5 ± 2.6 µM | 54 ± 3.2 µM | 57.8 ± 3.3 µM |  |  |
| COc1ccc(N2CCN(CC(=O)Nc3ccc(C4=NN(C(C)=O)C(c5ccco5)C4)cc3)CC2)cc1 (stereo not shown) [5g, N-(4-(1-Acetyl-5-(furan-2-yl)-4,5-dihydro-1H-pyrazol-3-yl)phenyl)-2-(4-(4-methoxy-phenyl)piperazin-1-yl)acetamide] | 3.78 ± 0.2 µM | 8.06 ± 0.7 µM | 7.48 ± 0.6 µM | 6 µM | IC50 [6]: 1.54 µM; times less effective as EGFR inhibitors than erlotinib [7]: at least 10 times; IC50 ([7]; EGFR IC50 ± SEM): 2.38 µM |
| CC(=O)N1N=C(c2ccc(NC(=O)CN3CCN(c4ccc(Cl)cc4)CC3)cc2)CC1c1ccccc1 (stereo not shown) [5h, N-(4-(1-Acetyl-5-phenyl-4,5-dihydro-1H-pyrazol-3-yl)phenyl)-2-(4-(4-chloro-phenyl)piperazin-1-yl)acetamide] | 85.4 ± 4.6 µM | 74.9 ± 4.1 µM | 87.6 ± 4.3 µM |  |  |
| CC(=O)N1N=C(c2ccc(NC(=O)CN3CCN(c4ccc(Cl)cc4)CC3)cc2)CC1c1ccc(C)cc1 (stereo not shown) [5i, N-(4-(1-Acetyl-5-(p-tolyl)-4,5-dihydro-1H-pyrazol-3-yl)phenyl)-2-(4-(4-chloro-phenyl)piperazin-1-yl)acetamide] | 54.7 ± 3.1 µM | 62.5 ± 3.4 µM | 67.8 ± 3.6 µM |  |  |
| COc1ccc(C2CC(c3ccc(NC(=O)CN4CCN(c5ccc(Cl)cc5)CC4)cc3)=NN2C(C)=O)cc1 (stereo not shown) [5j, N-(4-(1-Acetyl-5-(4-methoxyphenyl)-4,5-dihydro-1H-pyrazol-3-yl)phenyl)-2-(4-(4-chlorophenyl)piperazin-1-yl)acetamide] | 94 ± 4.9 µM | > 100 µM | > 100 µM | 100 µM |  |
| COc1cc(C2CC(c3ccc(NC(=O)CN4CCN(c5ccc(Cl)cc5)CC4)cc3)=NN2C(C)=O)cc(OC)c1OC (stereo not shown) [5k, N-(4-(1-Acetyl-5-(3,4,5-trimethoxyphenyl)-4,5-dihydro-1H-pyrazol-3-yl)phenyl)-2-(4-(4-chlorophenyl)piperazin-1-yl)acetamide] | 40.8 ± 2.4 µM | 52.8 ± 3 µM | 45.7 ± 2.6 µM |  |  |
| CC(=O)N1N=C(c2ccc(NC(=O)CN3CCN(c4ccc(Cl)cc4)CC3)cc2)CC1c1ccc(Cl)cc1Cl (stereo not shown) [5m, N-(4-(1-Acetyl-5-(2,4-dichlorophenyl)-4,5-dihydro-1H-pyrazol-3-yl)phenyl)-2-(4-(4-chlorophenyl)piperazin-1-yl)acetamide] | 71.3 ± 3.6 µM | 69.9 ± 3.7 µM | 76.7 ± 3.9 µM |  |  |
| CC(=O)N1N=C(c2ccc(NC(=O)CN3CCN(c4ccc(Cl)cc4)CC3)cc2)CC1c1ccco1 (stereo not shown) [5n, N-(4-(1-Acetyl-5-(furan-2-yl)-4,5-dihydro-1H-pyrazol-3-yl)phenyl)-2-(4-(4-chlorophenyl)piperazin-1-yl)acetamide] | 23.9 ± 1.7 µM | 39.6 ± 2.3 µM | 36.8 ± 2.2 µM |  |  |
| COc1cccc2c1C(=O)c1c(O)c3c(c(O)c1C2=O)C[C@@](O)(C(=O)CO)C[C@@H]3O[C@H]1C[C@H](N)[C@H](O)[C@H](C)O1 [Doxorubicin, reference compound] |  |  |  | 5 µM |  |
| CNC(=O)c1cc(Oc2ccc(NC(=O)Nc3ccc(Cl)c(C(F)(F)F)c3)cc2)ccn1 [Sorafenib, reference compound] |  |  | 11.5 ± 0.9 µM | 8 µM | GI50 [5]: 7 µM |
